Species: Rattus norvegicus
Assay: Open TG-GATES - Regimen: Single
Type: toxicity, organism-based, Sprague-Dawley
Set-up: regimen Single, gender Male, age 6 weeks
Details: in vivo, po, 10 mg/kg, route gavage, dose level Low; for APTT / Bas / Eos / Fbg / Hb / Ht / Lym / MCH / MCHC / MCV / Mono / Neu / PT / Plat / RBC / Ret / WBC: tissue Blood; for KIDNEY_L / KIDNEY_R / KIDNEY_TOTAL: tissue Kidney; for LIVER: tissue Liver; for A/G / ALP / ALT / AST / BUN / CRE / Ca / Cl / DBIL / GLC / IP / K / LDH / Na / PL / RALB / TBIL / TC / TG / TP / gamma-GTP: tissue Plasma

Work on `CCCc1cc(=O)[nH]c(=S)[nH]1` [PROPYLTHIOURACIL] yielded a TERMINAL_BW (9 h) of 177.5 g, an APTT (9 h) of 16 s and a Bas (9 h) of 0%. For the same compound, the Eos (9 h) was 1.4%, the Fbg (9 h) was 214.2 mg/dL and the Hb (9 h) was 13.1 g/dL. For the same compound, the Ht (9 h) was 39.3%, the Lym (9 h) was 67% and the MCH (9 h) was 22 pg. For the same compound, the MCHC (9 h) was 33.3%, the MCV (9 h) was 66 fL and the Mono (9 h) was 11.8%. The Neu (9 h) was 19.6%, the PT (9 h) was 12.9 s and the Plat (9 h) was 109.3 x10_4/uL. The RBC (9 h) was 596 x10_4/ul, the Ret (9 h) was 10.2% and the WBC (9 h) was 70.1 x10_2/uL. It also gave a KIDNEY_L (9 h) of 0.8 g, a KIDNEY_R (9 h) of 0.9 g and a KIDNEY_TOTAL (9 h) of 1.7 g. For the same compound, the LIVER (9 h) was 7.7 g, the A/G (9 h) was 2.1 and the ALP (9 h) was 791.6 IU/L. For the same compound, the ALT (9 h) was 32 IU/L, the AST (9 h) was 59.2 IU/L and the BUN (9 h) was 12.8 mg/dL. The CRE (9 h) was 0.4 mg/dL, the Ca (9 h) was 10.7 mg/dL and the Cl (9 h) was 106.4 meq/L. It also gave a DBIL (9 h) of 0.01 mg/dL, a GLC (9 h) of 192.6 mg/dL and an IP (9 h) of 10.7 mg/dL. The K (9 h) was 5.3 meq/L, the LDH (9 h) was 84.2 IU/L and the Na (9 h) was 138.2 meq/L. The PL (9 h) was 135 mg/dL, the RALB (9 h) was 3.6 g/dL and the TBIL (9 h) was 0.4 mg/dL. The TC (9 h) was 73.4 mg/dL, the TG (9 h) was 38.8 mg/dL and the TP (9 h) was 5.4 g/dL. For the same compound, the gamma-GTP (9 h) was 1.4 IU/L, the TERMINAL_BW (24 h) was 193.7 g and the APTT (24 h) was 16.3 s. For the same compound, the Bas (24 h) was 0%, the Eos (24 h) was 1% and the Fbg (24 h) was 209.4 mg/dL. It also gave a Hb (24 h) of 13 g/dL, a Ht (24 h) of 39.1% and a Lym (24 h) of 77.2%. It also gave an MCH (24 h) of 21.7 pg, an MCHC (24 h) of 33.1% and an MCV (24 h) of 65.4 fL. For the same compound, the Mono (24 h) was 7.2%, the Neu (24 h) was 14.8% and the PT (24 h) was 12.3 s. The Plat (24 h) was 102.3 x10_4/uL, the RBC (24 h) was 598.4 x10_4/ul and the Ret (24 h) was 9.7%. The WBC (24 h) was 90 x10_2/uL, the KIDNEY_L (24 h) was 0.9 g and the KIDNEY_R (24 h) was 0.9 g. It also gave a KIDNEY_TOTAL (24 h) of 1.8 g, an LIVER (24 h) of 9.5 g and an A/G (24 h) of 2.1. For the same compound, the ALP (24 h) was 908.8 IU/L, the ALT (24 h) was 39.8 IU/L and the AST (24 h) was 65.6 IU/L. It also gave a BUN (24 h) of 18.8 mg/dL, a CRE (24 h) of 0.5 mg/dL and a Ca (24 h) of 11 mg/dL. For the same compound, the Cl (24 h) was 106.6 meq/L, the DBIL (24 h) was 0.008 mg/dL and the GLC (24 h) was 182.6 mg/dL. For the same compound, the IP (24 h) was 7.3 mg/dL, the K (24 h) was 5.2 meq/L and the LDH (24 h) was 85.8 IU/L. The Na (24 h) was 139.4 meq/L, the PL (24 h) was 166.4 mg/dL and the RALB (24 h) was 3.8 g/dL. For the same compound, the TBIL (24 h) was 0.3 mg/dL, the TC (24 h) was 94.8 mg/dL and the TG (24 h) was 97.6 mg/dL. The TP (24 h) was 5.6 g/dL and the gamma-GTP (24 h) was 2.8 IU/L.

Reference: ChEMBL document CHEMBL3885861, “Open TG-GATES”
